# Laboratory results published in PubChem BioAssay (NCI).
# “And” between values parts separate entries of the source, which are not always exact repeats. Equal values may be shown once.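 These data come from cells grown in 96-well plates and exposed to compound for 48 hours at five concentrations. At the GI50, growth is halved. TGI is the concentration that stops growth completely.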
# Columns and labels:
# Assay in all cases: NCI anticancer screen, dose series, 48 h
# A549 NSCLC = tested on: A549 NSCLC
# DU-145 prostate = tested on: DU-145 prostate
# HCC-2998 colon = tested on: HCC-2998 colon
# HT29 colon = tested on: HT29 colon
# MALME-3M melanoma = tested on: MALME-3M melanoma
# MDA-MB-435 = tested on: MDA-MB-435
# NCI-H226 lung = tested on: NCI-H226 lung
# NCI/ADR-RES ovarian = tested on: NCI/ADR-RES ovarian
# RPMI-8226 leukemia = tested on: RPMI-8226 leukemia
# SN12C renal = tested on: SN12C renal
SMILES,GI50 (A549 NSCLC),TGI (A549 NSCLC),GI50 (DU-145 prostate),TGI (DU-145 prostate),GI50 (HCC-2998 colon),TGI (HCC-2998 colon) [µM],GI50 (HT29 colon),TGI (HT29 colon),GI50 (MALME-3M melanoma) [µM],TGI (MALME-3M melanoma),GI50 (MDA-MB-435),TGI (MDA-MB-435),GI50 (NCI-H226 lung),TGI (NCI-H226 lung),GI50 (NCI/ADR-RES ovarian),TGI (NCI/ADR-RES ovarian),GI50 (RPMI-8226 leukemia),TGI (RPMI-8226 leukemia),GI50 (SN12C renal),TGI (SN12C renal)
Cn1ncc(C#N)c1-c1ccc2c(c1)CN([C@H](CN)Cc1cccc(F)c1)C2=O,5.34 µM,> 100 µM,21.3 µM,> 100 µM,5.96 µM,> 100,3.25 µM,> 100 µM,1.33,11.3 µM,7.56 µM,> 67.7 µM,13.6 µM,65.3 µM,> 100 µM,> 100 µM,2.34 µM,18.3 µM,19.7 µM,> 100 µM
O=S(=O)(NC1=NCCN1C(=S)SN1CCn2c1nsc2=S)c1ccc(Oc2ccccc2)cc1,> 100 µM,> 100 µM,31.7 µM,> 100 µM,41.7 µM,> 100,54.7 µM,> 100 µM,26.2,> 100 µM,30.4 µM,> 100 µM,> 100 µM,> 100 µM,77.4 µM,> 100 µM,30.2 µM,> 100 µM,59.8 µM,> 100 µM
COc1ccc(OC)c(Nc2nc3nonc3nc2Nc2cccc(Br)c2)c1,0.713 µM,> 100 µM,3.4 µM,> 100 µM,0.818 µM,> 100,1.13 µM,> 100 µM,0.471,5.52 µM,0.538 µM,> 100 µM,0.588 µM,40.2 µM,0.541 µM,13.9 µM,0.309 µM,3.05 µM,0.405 µM,7.07 µM
CC[C@@H](C)/C=C(C)/C=C/C(=O)c1c(O)c(-c2ccc(OC(=O)[C@@]34CC[C@@](C)(C(=O)O3)C4(C)C)cc2)cn(O)c1=O,4.27 µM,> 50 µM,0.839 µM,> 50 µM,3.65 µM,> 50,21.2 µM,> 50 µM,1.5,> 50 µM,2.46 µM,> 50 µM,1.39 µM,> 50 µM,1.46 µM,10 µM,2.49 µM,> 50 µM,2.47 µM,> 50 µM
C/C(=N\NC(=O)c1ccncc1)c1sc(-n2nc(-c3ccccc3)cc2-c2ccccc2)nc1C,–,> 31.6 µM,–,> 31.6 µM,–,> 31.6,–,> 100 µM,–,> 100 µM,–,> 31.6 µM,–,> 100 µM,–,> 100 µM,–,> 31.6 µM,–,> 100 µM
COc1cccc2c1C(=O)c1c(O)c3c(c(O)c1C2=O)C[C@@](O)(/C(CO)=N/NC(=O)CCCCCN1C(=O)C=CC1=O)C[C@@H]3O[C@H]1C[C@H](N)[C@H](O)[C@H](C)O1,–,–,0.554 µM,38.6 µM,1.5 µM,> 58.1,1.37 µM,13.2 µM,0.395,2.23 µM,2.03 µM,13.4 µM,0.56 µM,3.37 µM,> 100 µM,> 100 µM,0.32 µM,> 28.2 µM,0.446 µM,> 100 µM
CCN1CCN(c2nc(C)cc(NCc3cc(Nc4ccnc5cc(Cl)ccc45)ccc3F)n2)CC1,3.54 µM,13.9 µM,3.23 µM,12.1 µM,1.78 µM,3.89,1.96 µM,6.17 µM,1.78,3.66 µM,1.5 µM,2.91 µM,2.82 µM,10.3 µM,3.07 µM,15.1 µM,0.981 µM,4.32 µM,1.94 µM,6.41 µM
C[C@]12CC[C@H](O[C@@H]3O[C@H](CO[C@@H]4O[C@H](CO)[C@@H](O)[C@H](O)[C@H]4O)[C@@H](O)[C@H](O)[C@H]3O)C[C@@H]1CC[C@@H]1[C@@H]2CC[C@]2(C)[C@@H](C3=CC(=O)OC3)CC[C@]12O,–,15.9 µM,–,26.4 µM,–,51,–,> 100 µM,–,38.1 µM,–,> 100 µM,–,> 95.8 µM,–,39.3 µM,–,> 87.9 µM,–,65.3 µM
Cc1cc(O)ccc1C1=NN(c2ccc(S(N)(=O)=O)cc2)C(=O)CC1,14 µM and 15.3 µM,50 µM and > 100 µM,15.1 µM and 46.3 µM,50 µM and > 100 µM,> 50 µM and 63.9 µM,> 100,2.52 µM and 4.65 µM,50 µM and > 100 µM,–,50 µM and 59.7 µM,0.994 µM and 1.73 µM,4.35 µM and 5.48 µM,10.9 µM and 94.5 µM,50 µM and > 100 µM,2.36 µM and 3.9 µM,50 µM and 30 µM,2.35 µM and 2.76 µM,50 µM and 23.6 µM,6.68 µM and 42.6 µM,50 µM and > 100 µM
CCCCC(=O)N(c1ccc(Nc2c3ccccc3nc3cc([N+](=O)[O-])ccc23)cc1)S(C)(=O)=O,1.99 µM,62.2 µM,1.67 µM,74 µM,14.1 µM,30,13.6 µM,60.3 µM,14.3,34.8 µM,18.2 µM,> 93.1 µM,8 µM,32.9 µM,27 µM,> 100 µM,2.68 µM,14.3 µM,4.86 µM,> 100 µM
CCOc1cc(-c2nncn2C)ccc1Nc1ncc2cc(C)nc(NCC(C)(C)C)c2n1,2.34 µM,> 100 µM,> 30.7 µM,> 100 µM,> 100 µM,> 100,1.78 µM,> 100 µM,> 100,> 100 µM,> 100 µM,> 100 µM,> 23.5 µM,> 100 µM,1.06 µM,> 100 µM,2.31 µM,> 100 µM,> 100 µM,> 100 µM
COC(=O)c1c[nH]c2cc(OC(C)C)c(OC(C)C)cc2c1=O,> 100 µM,> 100 µM,> 100 µM,> 100 µM,> 100 µM,> 100,> 100 µM,> 100 µM,> 100,> 100 µM,> 100 µM,> 100 µM,> 100 µM,> 100 µM,> 100 µM,> 100 µM,> 100 µM,> 100 µM,> 100 µM,> 100 µM
